Blank lines part the entries; values can stand above or below the molecule they belong to. Active and inactive are the calls of the source. No cut-off for these calls is given here.
How the values were obtained:
Rattus norvegicus [1] = test: Antihypertensive activity in anesthetized spontaneous hypertensive rat model assessed as reduction in mean arterial blood pressure at 1 mg/kg, po measured within 20 hrs in presence of 0.3 mg/kg Azilsartan relative to control; format: functional; design: scale not given: the % may be the effect or the level left
Secretin receptor [2] = target: T1, Secretin receptor (Homo sapiens, UniProt P47872); test: Positive allosteric modulation of SCTR (unknown origin) overexpressed in CHO cells assessed as potentiation of SCT-induced cAMP production by measuring maximal response at 100 uM incubated for 20 mins by Lance cAMP assay relative to control (reference value: 100 %); format: functional, cell-based; conditions: filed as positive allosteric modulator
T1 sequence (P47872 whole entry): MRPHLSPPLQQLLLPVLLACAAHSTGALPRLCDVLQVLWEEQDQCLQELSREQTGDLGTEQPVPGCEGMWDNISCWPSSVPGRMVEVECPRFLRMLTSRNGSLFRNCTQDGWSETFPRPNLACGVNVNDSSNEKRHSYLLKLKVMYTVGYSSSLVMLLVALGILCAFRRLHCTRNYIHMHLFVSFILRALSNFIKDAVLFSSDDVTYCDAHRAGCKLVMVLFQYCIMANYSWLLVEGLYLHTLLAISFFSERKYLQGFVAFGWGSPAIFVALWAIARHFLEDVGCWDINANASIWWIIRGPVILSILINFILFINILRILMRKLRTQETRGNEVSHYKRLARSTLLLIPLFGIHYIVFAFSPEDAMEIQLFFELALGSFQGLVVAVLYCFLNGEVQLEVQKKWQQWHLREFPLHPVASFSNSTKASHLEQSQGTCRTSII

Rattus norvegicus [3] = test: Antihypertensive activity in anesthetized spontaneous hypertensive rat model assessed as reduction in mean arterial blood pressure at 50 mg/kg, po measured after 15 hrs relative to control; format: functional; design: scale not given: the % may be the effect or the level left
Secretin receptor [4] = target: T1, Secretin receptor; test: Synergistic agonist activity at SCTR (unknown origin) expressed in CHO cells assessed as fold increase in cAMP production at 100 uM incubated for 20 mins in presence of SCT by Lance cAMP assay (reference value: 4.13); format: functional, cell-based; conditions: filed as agonist
Secretin receptor [5] = target: T1, Secretin receptor; test: Agonist activity at SCTR (unknown origin) expressed in CHO cells assessed as increase in cAMP production incubated for 20 mins Lance cAMP assay; format: functional, cell-based
[6] = Half life in C57 mouse blood at 1000 mg/kg, po administered via gavage measured upto 24 hrs by LC-MS/MS analysis; format: ADME, organism-based
[7] = Drug concentration in C57 mouse blood at 1000 mg/kg, po administered via gavage measured after 12 hrs by LC-MS/MS analysis; format: ADME, organism-based; conditions: read-out: Ct
Rattus norvegicus [8] = test: Antihypertensive activity in anesthetized spontaneous hypertensive rat model assessed as reduction in mean arterial blood pressure at 0.26 microg/g, iv administered through tail vein and measured after 20 to 50 hrs by DSI telemetric transmitter based analysis relative to control; format: functional; design: scale not given: the % may be the effect or the level left; conditions: dose 0.26 µg/g, time 20-50 hrs
[9] = Tmax in C57 mouse blood at 1000 mg/kg, po administered via gavage measured upto 24 hrs by LC-MS/MS analysis; format: ADME, organism-based
Secretin receptor [10] = target: T1, Secretin receptor; test: Positive allosteric modulation of SCTR (unknown origin) expressed in CHO cells assessed as potentiation of SCT-induced cAMP production by measuring maximal response at 100 uM incubated for 20 mins in presence of 1 uM SCT by Lance cAMP assay (reference value: 100 +/- 0.03%); format: functional, cell-based; conditions: filed as positive allosteric modulator
[11] = Drug concentration in C57 mouse blood at 1000 mg/kg, po administered via gavage measured at 24 hrs by LC-MS/MS analysis; format: ADME, organism-based; conditions: read-out: Ct
Rattus norvegicus [12] = test: Antihypertensive activity in anesthetized spontaneous hypertensive rat model assessed as reduction in blood pressure at 0.26 microg/g, iv administered through tail vein and measured after 20 to 50 hrs by DSI telemetric transmitter based analysis; format: functional, organism-based; conditions: dose 0.26 µg/g, time 20-50 hrs
Rattus norvegicus [13] = test: Antihypertensive activity in anesthetized spontaneous hypertensive rat model assessed as reduction in mean arterial blood pressure at 30 mg/kg, po measured after 15 hrs relative to control; format: functional; design: scale not given: the % may be the effect or the level left
[14] = Drug concentration in C57 mouse blood at 1000 mg/kg, po administered via gavage measured at 6 hrs by LC-MS/MS analysis; format: ADME, organism-based; conditions: read-out: Ct
[15] = Cmax in C57 mouse blood at 1000 mg/kg, po administered via gavage measured upto 24 hrs by LC-MS/MS analysis; format: ADME, organism-based; design: time < 24 hrs, dose 1000 mg/kg, route po
Secretin receptor [16] = target: T1, Secretin receptor; test: Positive allosteric modulation of SCTR (unknown origin) expressed in CHO cells assessed as potentiation of SCT-induced cAMP production by measuring maximal response at 1 uM incubated for 20 mins in presence of 1 uM SCT by Lance cAMP assay (reference value: 100 +/- 0.03%); format: functional, cell-based; conditions: filed as positive allosteric modulator
Secretin receptor [17] = target: T1, Secretin receptor; test: Agonist activity at SCTR (unknown origin) expressed in CHO cells assessed as increase in cAMP production by measuring maximal response incubated for 20 mins Lance cAMP assay relative to control; format: functional, cell-based
Secretin receptor [18] = target: T1, Secretin receptor; test: Positive allosteric modulation of SCTR (unknown origin) expressed in CHO cells assessed as potentiation of SCT-induced cAMP production by measuring maximal response at 10 uM incubated for 20 mins in presence of 1 uM SCT by Lance cAMP assay (reference value: 100 +/- 0.03%); format: functional, cell-based; conditions: filed as positive allosteric modulator
Secretin receptor [19] = target: T1, Secretin receptor; test: Negative allosteric modulation of SCTR (unknown origin) overexpressed in CHO cells assessed as decrease in SCT-induced cAMP production by measuring maximal response at 100 uM incubated for 20 mins by Lance cAMP assay relative to control (reference value: 100 %); format: functional, cell-based; conditions: filed as negative allosteric modulator

Compound: NS(=O)(=O)c1cc(C2(O)NC(=O)c3ccccc32)ccc1Cl (stereo unspecified) [CHLORTHALIDONE]
Activity (Rattus norvegicus [1]): 22.72%

Compound: OC1CCN(c2ccc(Nc3nc(Oc4cccc5ccccc45)nc4c3ncn4C3CCCCC3)cc2)CC1
Emax (Secretin receptor [2]): 166%

Compound: c1ccc(-c2ccc(Nc3nc(Oc4cccc5ccccc45)nc4c3ncn4C3CCCCC3)cc2)cc1
Emax (Secretin receptor [19]): 58.8%

Compound: c1ccc(Oc2ccc(Nc3nc(Oc4cccc5ccccc45)nc4c3ncn4C3CCCCC3)cc2)cc1
Emax (Secretin receptor [2]): 98.8%

Compound: c1ccc2c(Oc3nc(Nc4ccc(-c5cccc6ccccc56)cc4)c4ncn(C5CCCCC5)c4n3)cccc2c1
Emax (Secretin receptor [19]): 54.1%

Continued, in another order:

Emax (Secretin receptor [2]): 165%
Compound: O[C@@H]1CCC[C@H](n2cnc3c(Nc4ccc(N5CCOCC5)cc4)nc(Oc4cccc5ccccc45)nc32)C1

fold change (FC) (Secretin receptor [4]): 6.1
EC50 (Secretin receptor [5]): 191 µM
half-life [6]: 7.7 h
concentration at 12 h [7]: 260 ng/mL
Tmax [9]: 0.5 h
Emax (Secretin receptor [10]): 238%
Emax (Secretin receptor [2]): 204%
concentration at 24 h [11]: 61 ng/mL
concentration at 6 h [14]: > 300 ng/mL
Cmax [15]: 647 ng/mL
Emax (Secretin receptor [16]): 117%
Emax (Secretin receptor [17]): 10.3%
Emax (Secretin receptor [18]): 103%
Compound: c1ccc2c(Oc3nc(Nc4ccc(N5CCOCC5)cc4)c4ncn(C5CCCCC5)c4n3)cccc2c1 [PURMORPHAMINE]
Activity (Rattus norvegicus [3]): 7.63%
Activity (Rattus norvegicus [8]): ~14%
Activity (Rattus norvegicus [12]): Active
Activity (Rattus norvegicus [13]): 10.33%

Emax (Secretin receptor [2]): 146%
Compound: Oc1ccc2c(Oc3nc(Nc4ccc(N5CCOCC5)cc4)c4ncn(C5CCCCC5)c4n3)cccc2c1

Emax (Secretin receptor [2]): 157%
Compound: O=C(O)c1cn(C2CCCCC2)c2nc(Oc3cccc4ccccc34)nc(Nc3ccc(N4CCOCC4)cc3)c12

Emax (Secretin receptor [2]): 181%
Compound: Oc1cc(N2CCOCC2)ccc1Nc1nc(Oc2cccc3ccccc23)nc2c1ncn2C1CCCCC1

From ChEMBL document CHEMBL5352393, “Discovery of small-molecule modulators of the secretin receptor: Purmorphamine as novel anti-hypertensive agent” (Eur J Med Chem, 2022)
